# Measurements as given in PMC4865845, “A human genome-wide loss-of-function screen identifies effective chikungunya antiviral drugs” (Nature Communications, 2016).
# System: CHIKV
# Assay type: cell-based, chikungunya virus
substance,measurement,value
Hs_ACO2_5 (CGGGAAGACATTGCCAATCTA; chemistry not given here),Score_si1,2.43
Hs_ACYP1_1 (AAGGATTACCACTGTACACAA; chemistry not given here) [reference compound],Score_si1,-2.79
Hs_ADPRHL1_1 (CCCGACAATTATGATGCAGAA; chemistry not given here) [reference compound],Score_si1,-2.15
Hs_ANKRD9_1 (AAGAGAGGTATGGGACCTGAA; chemistry not given here),Score_si1,2.5
Hs_ANKRD9_2 (CTCCCAGGAGCTAACGTATAA; chemistry not given here),Score_si2,2.08
Hs_AOF2_2 (ACATCTTACCTTAGTCATCAA; chemistry not given here),Score_si4,0.88
Hs_AOF2_3 (ACGAGTTGCCACATTTCGCAA; chemistry not given here),Score_si3,1.26
Hs_AP2M1_3 (ACGTGTGACTTCGTCCAGTTA; chemistry not given here),Score_si1,2.57
Hs_AP3S2_1 (TGGGATGGTGTTGGAAACAAA; chemistry not given here),Score_si2,1.11
Hs_AP3S2_2 (CAGGGCTTAGGCGCCCATAAA; chemistry not given here),Score_si1,1.97
Hs_APEX2_3 (AGGGCCCTTCATCGATAGCTA; chemistry not given here) [reference compound],Score_si1,-3.29
Hs_APEX2_5 (ACGCTGCAGCACAACAATCAA; chemistry not given here) [reference compound],Score_si4,-0.1
Hs_APPL_2 (CAGGAATTTCTACAATAATAA; chemistry not given here) [reference compound],Score_si1,-2.3
Hs_APPL_3 (TAGGAATAGGATAATGATATA; chemistry not given here) [reference compound],Score_si2,-1.06
Hs_AQP3_2 (CTGGATGTACATACATAAGTA; chemistry not given here),Score_si3,1.09
Hs_AQP3_3 (CTGGATCAAGCTGCCCATCTA; chemistry not given here),Score_si1,1.31
Hs_ASH2L_1 (CCGAGTAACTAACTTATTTAA; chemistry not given here),Score_si2,1.07
Hs_ASH2L_3 (TTGGAACACCCGTTTAACAAA; chemistry not given here),Score_si1,1.11
Hs_ATF1_6 (AACCTAGTACATTACTAAATA; chemistry not given here) [reference compound],Score_si4,-0.75
Hs_ATF1_7 (CCAATAAATTCTAAATTACAA; chemistry not given here) [reference compound],Score_si2,-1.38
Hs_ATF1_8 (CTGCATCAGGAGATATGCAAA; chemistry not given here) [reference compound],Score_si1,-1.45
Hs_ATP6AP2_1 (ATGGGCTAATATGGATACTAA; chemistry not given here),Score_si2,0.84
Hs_ATP6AP2_2 (AAGAGTGTATATGGTAGGGAA; chemistry not given here),Score_si4,0.62
Hs_ATP6AP2_3 (AAGGACTATCCTTGAGGCAAA; chemistry not given here),Score_si1,1.26
Hs_ATP6AP2_5 (CAAGTGCTACATGATATTTCA; chemistry not given here),Score_si3,0.69
Hs_ATP6V0C_2 (CTGGATGTTTATTTATAAAGA; chemistry not given here),Score_si1,3.5
Hs_BCHE_2 (CGGGTTGAAAGAGTTATTGTA; chemistry not given here),Score_si2,0.74
Hs_BCHE_3 (CAGGAGTGAGTGAGTTTGGAA; chemistry not given here),Score_si3,0.6
Hs_BCHE_4 (CAGAACGTTGAACTTAGCTAA; chemistry not given here),Score_si1,0.93
Hs_BOP1_2 (CTGCCATGGCATGGTGTACAA; chemistry not given here),Score_si2,2.23
Hs_BRD8_1 (TGCAATGACATTGCAACGAAA; chemistry not given here),Score_si4,0.57
Hs_BRD8_4 (CCGGCTGTCTCCACTACTGAA; chemistry not given here),Score_si1,2.93
Hs_C14orf160_1 (AAAGATTTGAATTATAAATAA; chemistry not given here) [reference compound],Score_si3,-1.03
Hs_C14orf160_2 (ATGGAGTTACTGAAATGTATA; chemistry not given here) [reference compound],Score_si2,-1.06
Hs_C15orf15_1 (CAGCATTTGTATAGTAACTAA; chemistry not given here),Score_si1,1.89
Hs_CAB39L_2 (GCCAATGTCTTTGGACTGTAA; chemistry not given here),Score_si1,2.37
Hs_CALM2_5 (ACAAAGGAATTGGGAACTGTA; chemistry not given here),Score_si4,0.05
Hs_CALM2_7 (CAAAGGAATTGGGAACTGTAA; chemistry not given here),Score_si1,3.2
Hs_CAMKK2_3 (TAGCAGCATGTCCTACGGAAA; chemistry not given here),Score_si4,1.01
Hs_CAMKK2_4 (sense ACAGAAAGGGCTTGAAATTTA; chemistry not given here),Score_si3,1.25
Hs_CAMKK2_6 (sense CCGCAAGATCTTCTCTGGGAA; chemistry not given here),Score_si1,1.65
Hs_CAMKK2_7 (sense CTAGCTGATTGTTGTGGTCAA; chemistry not given here),Score_si2,1.31
Hs_CCDC6_1 (sense ATGGATAATTATCGTATATTA; chemistry not given here) [reference compound],Score_si1,-2.65
Hs_CCDC6_2 (sense CAGGAATTTCAGGTCAACAAA; chemistry not given here) [reference compound],Score_si2,-0.83
Hs_CCNF_2 (sense AACCCAAGCGTTGGAACTGTA; chemistry not given here),Score_si1,2.05
Hs_CCNF_3 (sense CACAGATGGCGTCAATGTGAA; chemistry not given here),Score_si2,1.09
Hs_CCNF_7 (sense CACGGACAACACTTACAAGTA; chemistry not given here),Score_si3,0.92
Hs_CDC25A_1 (sense AAGGCGCTATTTGGCGCTTCA; chemistry not given here),Score_si2,1.56
Hs_CDK4_1 (sense CCGAACTGACCGGGAGATCAA; chemistry not given here),Score_si2,1.51
Hs_CDK4_2 (sense CAAGGTAACCCTGGTGTTTGA; chemistry not given here),Score_si1,1.6
Hs_CDK4_3 (sense ACCCTGGTGTTTGAGCATGTA; chemistry not given here),Score_si3,1.02
Hs_CGI-12_1 (sense AAGATGTTAACTGCAAATAAA; chemistry not given here) [reference compound],Score_si1,-2.28
Hs_CHD8_1 (sense CAGGAGGTTATTGGAGACCAA; chemistry not given here),Score_si2,1.61
Hs_CHD8_2 (sense AAGGATAAGAGGATACATCAA; chemistry not given here),Score_si3,1.53
Hs_CIZ1_1 (sense CAGGTGAGGTCCAGAGATATA; chemistry not given here) [reference compound],Score_si1,-1.69
Hs_CIZ1_2 (sense CAGCATGGAAGAGATTCAGAA; chemistry not given here) [reference compound],Score_si2,-1.05
Hs_CLCN6_2 (sense CCGGTGAATGTTATTGGAATT; chemistry not given here),Score_si3,-0.01
Hs_CLCN6_4 (sense AAGATGTGAATTCAAGTATCA; chemistry not given here),Score_si1,2.72
Hs_CLK1_2 (sense AACGTGATGAACGCACCTTAA; chemistry not given here),Score_si3,1.36
Hs_CLK1_4 (sense CCGTATTTCCAACACACGATA; chemistry not given here),Score_si4,0.91
Hs_CLPP_1 (sense CACGATGCAGTACATCCTCAA; chemistry not given here),Score_si4,0.97
Hs_CLPP_3 (sense GCCCATCCACATGTACATCAA; chemistry not given here),Score_si3,1.41
Hs_CLTC_11 (sense ACAGTTCTACTTAGAATTCAA; chemistry not given here),Score_si1,2.42
Hs_CLTC_12 (sense CCGGAGAGATTTCTTCGTGAA; chemistry not given here),Score_si2,2.21
Hs_CNOT1_1 (sense CAGCTGGAATGGCTATGATTA; chemistry not given here),Score_si2,2.61
Hs_CNOT1_2 (sense CCAAGTTTGAATTTCAAGGAA; chemistry not given here),Score_si1,2.81
Hs_CNOT3_1 (sense CTCGGACACTGTGGAATTCTA; chemistry not given here),Score_si1,2.54
Hs_CNOT3_2 (sense ACGGCTGAGGGACCAAATCAA; chemistry not given here),Score_si3,1.32
Hs_COPG_2 (sense CAGGAAAGGGACATTGTAAAT; chemistry not given here),Score_si2,2.25
Hs_COPS2_1 (sense CACGATATACTGCACTAGATA; chemistry not given here),Score_si2,1.3
Hs_COPS2_3 (sense ATGAATAGATATAAGCAGCTA; chemistry not given here),Score_si1,2.07
Hs_COPS2_4 (sense ATCCATTAATTCTATTCTTGA; chemistry not given here),Score_si4,1.19
Hs_CRSP7_1 (sense TACGGTTAACTTGGACGGGCA; chemistry not given here) [reference compound],Score_si2,-1.45
Hs_CRSP7_2 (sense GAGAAATACCCTATTACCAAA; chemistry not given here) [reference compound],Score_si1,-1.9
Hs_CRSP8_1 (sense AACGAGAATGTCTACACAGAA; chemistry not given here) [reference compound],Score_si1,-2.6
Hs_CRSP8_2 (sense TCGAACAATAGTAAAGGGATA; chemistry not given here) [reference compound],Score_si2,-1.08
Hs_CSNK1A1_3 (sense AAGAACTTAATTTCAGTATAA; chemistry not given here),Score_si3,1.65
